Source: US20220356163A1, “SMALL MOLECULE INHIBITORS OF Id PROTEINS” (MEMORIAL SLOAN KETTERING CANCER CENTER, priority 2019, published 2022)

What was measured:
[1] = test system: MDA-MB-361; assay: MTT assay, MDA-MB-361; assay type: cell-based; details: MDA-MB-361, HER-2 +ve cell line, 24 hours
Excerpt: (§1) The 4T1 murine mammary tumor cell line and nine breast cancer cell lines representing the major breast cancer subtypes (ER+, HER2+, and TNBC) including MDA-MB-157, MDA-MB-436, MDA-MB-231, MDA-MB-453, MDA-MB-361, BT-474, SK-BR-3, MCF-7 and T47-D will be grown in RPMI or DMEM (Dulbecco's Modified Eagle Medium) media supplemented with 10% FBS (fetal bovine serum), 1% penicillin-streptomycin and 1% L-Glutamine. Patient derived xenograft cell lines BR7, BR11, and IBT will be established directly from breast cancer bone metastases specimens surgically resected from patients with informed consent. BR7 and BR11 specimens will be obtained from ER positive (HER2 negative and PR negative) metastatic breast cancer patients, while the IBT specimen will be obtained from a metastatic, triple negative breast cancer patient. Fresh tumor tissues will be quickly washed with ice cold PBS and minced into about 1-3 mm pieces in MEM medium (without FBS) using sterile razor blades. […] The cells will be treated with either 100 μM DMSO, AGX51, or a compound of the present technology such as AGX-A. The cell morphology and growth will be monitored daily for 1 week by microscopy for changes in morphology or cell death. […] Absorbance will then measured at 570 nm using a plate reader (Synergy 2, BioTek). […]

[2] = test system: T47-D; assay: MTT assay, T47-D; assay type: cell-based; details: ER +ve cell line, 24 hours
Excerpt: as §1

[3] = test system: PDX-IBT; assay: MTT assay, PDX-IBT; assay type: cell-based; details: 24 h, PDX cell line, read-out: IC50 value after 24 hours of treatment
Excerpt: as §1

[4] = test system: SK-BR-3; assay: MTT assay, SK-BR-3; assay type: cell-based; details: Homo sapiens, 24 h, SK-BR-3, HER-2 +ve cell line, read-out: IC50 value after 24 hours of treatment
Excerpt: as §1

[5] = molecular target: E47 (Homo sapiens, UniProt P15923); assay: Circular dichroism (CD) of E47; assay type: binding; details: 0, 10, 20 and 50 μM
Description: Circular dichroism. Far UV Circular dichroism (CD) measurements were done on a Jasco J-1500 spectropolarimeter at room temperature using a 0.1 cm cell and a 0.1 mg/mL protein solution in the absence of presence of AGX51, AGX51E1, AGX51E2 or AGX-A. Due to the presence of DMSO in the samples, the lowest wavelength to be scanned is limited.

[6] = test system: HUVEC; assay: HUVEC cell branching assay on Matrigel; assay type: cell-based, human; details: 0-40 μM, 18-20 hours, p<0.05
Description: HUVEC cell branching assays. For branching assays, 350 μL of Matrigel was loaded into each well of a 24-well plate on ice and incubate the plate for 30 minutes at 37° C. to allow the Matrigel to solidify. 80,000 HUVECs in 0.5 mL of EGM-2 medium with the indicated AGX concentration was plated on the solidified Matrigel. At 18-20 hours of incubation when the tube formation was peaked, media from the well was carefully removed and fixed with 10% buffered formalin for 15 minutes. Each well was washed with DPBS. The morphology of capillary like structures was visualized using an inverted microscope and photographed with a digital camera at 10× magnification. To quantify the tube network, Image J with the Angiogenesis Analyzer plugin (public domain Java-based image-processing program, reference: Carpentier G. ImageJ contribution: Angiogenesis Analyzer. ImageJ News. 2012) was installed and the analysis for the number of nodes, junctions, meshes and total branching length was performed as per the instruction. The statistical data analyses were performed using the Wilcoxon test.

[7] = molecular target: T1, Id3 (Homo sapiens, UniProt Q02535); assay: Knockdown of Id3 in TFK1 cell cultures; assay type: cell-based; details: TFK1, FIG. 22
T1 construct: endogenous in cells; host or cells: TFK1
Excerpt: (§2) Following the methods described herein (see, e.g., Examples 12-13), AGX-A and AGX51 were compared for their ability to mediate Id knockdown in cell cultures. FIG. 21 illustrates side-by-side comparative effects of AGX51 and AGX-A for knockdown of Id1 in TFK1 cell cultures, and FIG. 22 illustrates side-by-side comparative effects of AGX51 and AGX-A for knockdown of Id3 in TFK1 cell cultures.

[8] = molecular target: T2, ID1 (Homo sapiens, UniProt P41134); assay: Knockdown of Id1 in TFK1 cell cultures; assay type: cell-based; design: endogenous in cells; host or cells: TFK1; details: TFK1, FIG. 21
T2 sequence (P41134 1-155): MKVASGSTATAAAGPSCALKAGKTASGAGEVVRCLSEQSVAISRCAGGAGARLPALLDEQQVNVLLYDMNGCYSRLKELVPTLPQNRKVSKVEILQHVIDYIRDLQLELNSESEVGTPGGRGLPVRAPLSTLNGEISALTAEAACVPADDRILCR
Excerpt: as §2

T1 sequence (Q02535 whole entry): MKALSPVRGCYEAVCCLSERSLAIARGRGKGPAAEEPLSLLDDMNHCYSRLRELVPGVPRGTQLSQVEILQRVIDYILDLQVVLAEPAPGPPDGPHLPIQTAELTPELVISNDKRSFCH
Sequence of E47 (P15923 1-651 isoform P15923-2): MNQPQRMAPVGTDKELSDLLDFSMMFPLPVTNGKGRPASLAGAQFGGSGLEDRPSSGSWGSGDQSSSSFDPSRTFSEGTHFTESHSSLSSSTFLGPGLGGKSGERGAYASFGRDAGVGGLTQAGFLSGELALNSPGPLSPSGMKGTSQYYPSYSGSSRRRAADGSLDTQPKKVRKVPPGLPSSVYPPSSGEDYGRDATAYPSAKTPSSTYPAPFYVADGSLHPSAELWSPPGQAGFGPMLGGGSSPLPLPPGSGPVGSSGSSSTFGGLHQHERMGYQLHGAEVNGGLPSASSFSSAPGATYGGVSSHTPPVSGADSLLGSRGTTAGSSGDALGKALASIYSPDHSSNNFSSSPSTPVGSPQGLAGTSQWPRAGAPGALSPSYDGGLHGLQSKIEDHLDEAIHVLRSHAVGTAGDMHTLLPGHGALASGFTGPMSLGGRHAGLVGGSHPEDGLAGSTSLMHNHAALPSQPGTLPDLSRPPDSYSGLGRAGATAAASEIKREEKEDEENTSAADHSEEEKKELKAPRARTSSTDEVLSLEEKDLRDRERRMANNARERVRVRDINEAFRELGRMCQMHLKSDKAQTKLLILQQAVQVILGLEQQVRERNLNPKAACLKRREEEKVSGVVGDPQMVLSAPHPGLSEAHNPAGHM

Row | SMILES | percentage at 60 μM (IC50 NA) [1] | percentage at 60 μM (IC50 NA) [2] | IC50 [3] [µM] | IC50 [4] [µM] | interaction with E47 (CD) [5] | vascular branching (nodes, junctions, meshes, branch length) [6] | Id3 knockdown potency vs AGX51 [7] | Id1 knockdown potency vs AGX51 [8]
1 | CCC(=O)N(CCC(c1ccc2c(c1)OCO2)c1ccccc1OC)Cc1ccccc1 (racemic) [AGX51, N-(3-(benzo[d][1,3]dioxol-5-yl)-3-(2-methoxyphenyl)propyl)-N-benzylpropionamide] | NA (60 μM = 53%) | NA (60 μM = 65%) | 12 | 36.6 | no evidence of an interaction | significantly impaired in a dose-dependent manner | – | –
2 | COc1ccccc1C(CCNCc1ccccc1)c1ccc(OC(C)C)cc1 (centres unmarked) [AGX-A, N-benzyl-3-(4-isopropoxyphenyl)-3-(2-methoxyphenyl)propan-1-anine] | – | – | – | – | – | – | superior anti-Id1 and anti-Id3 potency compared to AGX51 | superior anti-Id1 and anti-Id3 potency compared to AGX51
